Experiments:
[1] = test system: antibodies in sera from SARS patients (sera 1a, 1b, 2, 6, 37, 62, London, SARS-yellow, SARS-green); type: binding, human; set-up: Binding of serum 6 to linear peptides of protein X1 of SARS-CoV Urbani / Binding of serum 37 to linear peptides of protein X1 of SARS-CoV Urbani / Binding of serum 6 to looped/cyclic peptide (PEPSCAN-ELISA) / Binding of serum 37 to looped/cyclic peptide (PEPSCAN-ELISA) / Binding of serum 37 to looped/cyclic peptides of protein X1 of SARS-CoV Urbani / Binding of serum 6 to linear peptides of protein X2 / Binding of serum 37 to linear peptides of protein X2 / Binding of serum 37 to looped/cyclic peptides of protein X2 of SARS-CoV Urbani / Binding of serum 6 to linear peptides of protein M of SARS-CoV Urbani / Binding of serum 37 to linear peptides of protein M of SARS-CoV Urbani / Binding of serum 6 to looped/cyclic peptides of protein M of SARS-CoV Urbani / Binding of serum 37 to looped/cyclic peptides of protein M of SARS-CoV Urbani / Binding of serum 6 to linear peptides of protein X3 of SARS-CoV Urbani / Binding of serum 37 to linear peptides of protein X3 of SARS-CoV Urbani / Binding of serum 37 to looped/cyclic peptides of protein X3 of SARS-CoV Urbani / Binding of serum 6 to linear peptides of protein X4 of SARS-CoV Urbani / Binding of serum 37 to linear peptides of protein X4 of SARS-CoV Urbani / Binding of serum 37 to looped/cyclic peptides of protein X4 of SARS-CoV Urbani / Binding of serum 6 to linear peptides of protein X5 of SARS-CoV Urbani / Binding of serum 37 to linear peptides of protein X5 of SARS-CoV Urbani / Binding of serum 37 to looped/cyclic peptides of protein X5 of SARS-CoV Urbani / Binding of serum 6 to linear peptides of protein N of SARS-CoV Urbani / Binding of serum 37 to linear peptides of protein N of SARS-CoV Urbani / Binding of serum 6 to linear peptide (PEPSCAN-ELISA) / Binding of serum 1a to looped/cyclic peptides of protein N of SARS-CoV Urbani / Binding of serum 1b to looped/cyclic peptides of protein N of SARS-CoV Urbani / Binding of serum 2 to looped/cyclic peptides of protein N of SARS-CoV Urbani / Binding of serum 6 to looped/cyclic peptides of protein N of SARS-CoV Urbani / Binding of serum 37 to looped/cyclic peptides of protein N of SARS-CoV Urbani / Binding of serum 62 to looped/cyclic peptides of protein N of SARS-CoV Urbani / Binding of serum London to looped/cyclic peptides of protein N of SARS-CoV Urbani / Binding of serum SARS-green to looped/cyclic peptides of protein N of SARS-CoV Urbani: unit not given here
[2] = test system: control sera (pooled serum of ten healthy LUMC hospital workers; commercial negative donor pooled serum from the Dutch bloodbank); type: binding, human; set-up: Binding of Control serum LUMC to linear peptides / Binding of Control serum Blood-bank to linear peptides / Binding of Control serum LUMC to looped peptides / Binding of Control Serum Blood-Bank to Looped peptides / Binding of Control serum LUMC to linear peptides of the protein M of SARS-CoV Urbani / Binding of Control serum Blood-bank to linear peptides of the protein M of SARS-CoV Urbani / Binding of Control serum LUMC to looped peptides of the protein M of SARS-CoV Urbani / Binding of Control Serum Blood-Bank to Looped peptides of the protein M of SARS-CoV Urbani: unit not given here
[3] = test system: rabbit serum obtained by immunizing a rabbit with the SARS-CoV strain Frankfurt 1; type: binding; set-up: Binding of a rabbit serum to linear peptides / Binding of a rabbit serum to looped peptides / Rabbit serum linear peptides / Rabbit serum looped peptides / Binding of a rabbit serum to linear peptides of protein N of SARS-CoV Urbani (Rabbit serum linear peptides) / Binding of a rabbit serum to looped/cyclic peptides of protein N of SARS-CoV Urbani (Rabbit serum looped peptides): unit not given here
[4] = test system: recombinant human anti-SARS-CoV antibody 03-018; type: binding; set-up: Binding of antibody 03-018 to linear peptides of the N protein of SARS-CoV Urbani / Binding of antibody 03-018 to looped/cyclic peptides of the N protein of SARS-CoV Urbani: unit not given here

Row | Sequence | Binding of serum 1a to linear peptide (PEPSCAN-ELISA) [1] | Binding of serum 1a to looped/cyclic peptides of protein N of SARS-CoV Urbani [1] | Binding of serum 1b to linear peptide (PEPSCAN-ELISA) [1] | Binding of serum 1b to looped/cyclic peptides of protein N of SARS-CoV Urbani [1] | Binding of serum 2 to linear peptide (PEPSCAN-ELISA) [1] | Binding of serum 2 to looped/cyclic peptides of protein N of SARS-CoV Urbani [1] | Binding of serum 6 to looped/cyclic peptides of protein N of SARS-CoV Urbani [1] | Binding of serum 37 to looped/cyclic peptides of protein N of SARS-CoV Urbani [1] | Binding of serum 62 to looped/cyclic peptides of protein N of SARS-CoV Urbani [1] | Binding of serum London to looped/cyclic peptides of protein N of SARS-CoV Urbani [1] | Binding of serum SARS-green to looped/cyclic peptides of protein N of SARS-CoV Urbani [1] | Binding of serum SARS-yellow to looped/cyclic peptides of protein N of SARS-CoV Urbani [1] | Binding of Control Serum Blood-Bank to Looped peptides [2] | Binding of Control serum Blood-bank to linear peptides [2] | Binding of Control serum LUMC to linear peptides [2] | Binding of Control serum LUMC to looped peptides [2] | Binding of a rabbit serum to linear peptides of protein N of SARS-CoV Urbani (Rabbit serum linear peptides) [3] | Binding of a rabbit serum to looped/cyclic peptides of protein N of SARS-CoV Urbani (Rabbit serum looped peptides) [3] | Binding of antibody 03-018 to linear peptides of the N protein of SARS-CoV Urbani [4] | Binding of antibody 03-018 to looped/cyclic peptides of the N protein of SARS-CoV Urbani [4] | further results
1 | LESKVSGKGQQQQGQ | 0.3 | 0.4 | 0.1 | 0.3 | 0.2 | 0.7 | 0.5 | 0.7 | 0.6 | 1.8 | 0.4 | 0.7 | 0.8 | 0.8 | 0.7 | 0.7 | 0.1 | 0.6 | 0.1 | 0.3 | Binding of serum 6 to linear peptide (PEPSCAN-ELISA) [1]: 0.1; Binding of serum 37 to linear peptide (PEPSCAN-ELISA) [1]: 0.6; Binding of serum 62 to linear peptide (PEPSCAN-ELISA) [1]: 0.6; Binding of serum London to linear peptide (PEPSCAN-ELISA) [1]: 0.5; Binding of serum SARS-green to linear peptide (PEPSCAN-ELISA) [1]: 0.4; Binding of serum SARS-yellow to linear peptide (PEPSCAN-ELISA) [1]: 0.7
2 | SRSRGNSRNSTPGSS | 1.0 | 0.5 | 0.6 | 0.4 | 0.3 | 0.3 | 0.1 | 0.3 | 0.3 | 0.3 | 0.0 | 0.0 | 0.5 | 0.7 | 0.5 | 0.4 | 0.3 | 0.7 | 0.1 | 0.2 | Binding of serum 6 to linear peptide (PEPSCAN-ELISA) [1]: 0.2; Binding of serum 37 to linear peptide (PEPSCAN-ELISA) [1]: 0.7; Binding of serum 62 to linear peptide (PEPSCAN-ELISA) [1]: 0.7; Binding of serum London to linear peptide (PEPSCAN-ELISA) [1]: 0.5; Binding of serum SARS-green to linear peptide (PEPSCAN-ELISA) [1]: 0.4; Binding of serum SARS-yellow to linear peptide (PEPSCAN-ELISA) [1]: 0.6
3 | GPDDQIGYYRRATRR | – | 0.4 | – | 0.3 | – | 0.5 | 0.4 | 0.8 | 0.8 | 0.5 | 0.6 | 0.9 | 0.9 | 0.8 | 0.8 | 0.9 | – | – | 0.1 | 0.3 | Binding of serum 1a to linear peptides of protein N of SARS-CoV Urbani [1]: 0.2; Binding of serum 1b to linear peptides of protein N of SARS-CoV Urbani [1]: 0.1; Binding of serum 2 to linear peptides of protein N of SARS-CoV Urbani [1]: 0.2; Binding of serum 6 to linear peptides of protein N of SARS-CoV Urbani [1]: 0.2; Binding of serum 37 to linear peptides of protein N of SARS-CoV Urbani [1]: 0.6; Binding of serum 62 to linear peptides of protein N of SARS-CoV Urbani [1]: 0.6; Binding of serum London to linear peptides of protein N of SARS-CoV Urbani [1]: 0.4; Binding of serum SARS-green to linear peptides of protein N of SARS-CoV Urbani [1]: 0.3; Binding of serum SARS-yellow to linear peptides of protein N of SARS-CoV Urbani [1]: 0.6; Recognition of the peptide by the rabbit serum [3]: recognized
4 | VTPSGTWLTYHGAIK | – | 0.2 | – | 0.1 | – | 0.2 | 0.1 | 0.4 | 0.3 | 0.3 | 0.0 | 0.2 | – | – | – | – | 0.1 | 0.1 | 0.1 | 0.2 | Binding of serum 1a to linear peptides of protein N of SARS-CoV Urbani [1]: 0.3; Binding of serum 1b to linear peptides of protein N of SARS-CoV Urbani [1]: 0.1; Binding of serum 2 to linear peptides of protein N of SARS-CoV Urbani [1]: 0.2; Binding of serum 6 to linear peptides of protein N of SARS-CoV Urbani [1]: 0.2; Binding of serum 37 to linear peptides of protein N of SARS-CoV Urbani [1]: 0.7; Binding of serum 62 to linear peptides of protein N of SARS-CoV Urbani [1]: 0.8; Binding of serum London to linear peptides of protein N of SARS-CoV Urbani [1]: 0.7; Binding of serum SARS-green to linear peptides of protein N of SARS-CoV Urbani [1]: 0.5; Binding of serum SARS-yellow to linear peptides of protein N of SARS-CoV Urbani [1]: 0.5; Control Serum Blood-Bank Looped peptides [2]: 0.3; Control serum Blood-bank linear peptides [2]: 0.8; Control serum LUMC linear peptides [2]: 0.6; Control serum LUMC looped peptides [2]: 0.3

— patent US20070128217A1 (priority 2003, published 2007)
